Assay results reported in article PMC6835510, “Magnificamide, a β-Defensin-Like Peptide from the Mucus of the Sea Anemone Heteractis magnifica, Is a Strong Inhibitor of Mammalian α-Amylases” (Marine Drugs, 2019).
Like-named read-outs stand apart in the source and are kept apart here. Bridge positions count the residues as written; N and C are the ends. Ends that are not written are not given here.

Experiments:
[1] = tested on: human saliva α-amylases (HSA); conditions: cited from earlier work
Description: (§1) It covers all age groups of the population, and recently it has spread epidemiologically among children and adolescents. The blood glucose levels of diabetic patients reaches abnormally high values, which leads to serious damage to many body systems, especially nerves and blood vessels, causing heart and kidney diseases, blindness, and even the amputation of limbs. The preferred way to maintain ...

[2] = target: T1, porcine pancreatic α-amylase (PPA) (Sus scrofa, UniProt P00690); conditions: cited from earlier work
T1 construct: purchased Sigma Aldrich A4268
T1 sequence (P00690 16-511): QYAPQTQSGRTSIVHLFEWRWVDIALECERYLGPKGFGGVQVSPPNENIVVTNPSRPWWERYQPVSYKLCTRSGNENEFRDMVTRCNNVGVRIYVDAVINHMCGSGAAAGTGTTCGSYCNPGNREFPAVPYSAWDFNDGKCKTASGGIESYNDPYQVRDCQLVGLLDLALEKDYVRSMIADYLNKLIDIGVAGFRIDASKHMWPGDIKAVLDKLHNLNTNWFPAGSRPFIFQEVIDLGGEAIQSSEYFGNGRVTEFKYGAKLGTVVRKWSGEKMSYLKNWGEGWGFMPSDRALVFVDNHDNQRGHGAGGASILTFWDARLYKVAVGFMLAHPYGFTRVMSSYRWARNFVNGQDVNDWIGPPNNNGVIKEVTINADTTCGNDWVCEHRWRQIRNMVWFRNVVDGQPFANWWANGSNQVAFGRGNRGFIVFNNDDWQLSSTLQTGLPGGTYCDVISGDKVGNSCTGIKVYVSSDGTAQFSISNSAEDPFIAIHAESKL
Description: as §1, with “[…] Recently, as a result of the proteomic analysis of the sea anemone H. magni” for “The preferred way to maintain”

[3] = target: human pancreatic α-amylase (HPA); conditions: Table 5, ref [11]; cited from earlier work
Description: Recently, as a result of the proteomic analysis of the sea anemone H. magni ...

[4] = tested on: 18 subtypes of voltage-gated potassium and voltage-gated sodium channels; test: Electrophysiological screening, overall; assay type: cell-based; conditions: 10 µM; Xenopus laevis oocytes; listed as magnificamide
Description: For the expression of Nav channels (mammalian rNav1.2, rNav1.4, hNav1.5, mNav1.6 and hNav1.8 channels; the insect channel BgNav1 from Blattella germanica; and the auxiliary subunits rβ1, hβ1, and TipE) and Kv channels (mammalian rKv1.1, rKv1.2, hKv1.3, rKv1.4, rKv1.5, rKv1.6, rKv2.1, hKv3.1, rKv4.2, hKv10.1, and hERG; and Drosophila Shaker’s IR) in Xenopus laevis oocytes; the linearized plasmids were transcribed using the T7 or SP6 mMESSAGE-mMACHINE transcription kit (Ambion, Carlsbad, CA, USA). The harvesting of stage V–VI oocytes from anesthetized female Xenopus laevis frog was previously described. Oocytes were injected with 50 nL of cRNA at a concentration of 1 ng/nL using a microinjector (Drummond Scientific, Broomall, PA, USA). The oocytes were incubated in a solution containing 96-mM NaCl, 2-mM KCl, 1.8-mM CaCl2, 2-mM MgCl2, and 5-mM HEPES (pH 7.4), supplemented with 50 mg/L gentamycin sulfate.
Two-electrode voltage-clamp recordings were performed at room temperature (18–22 °C) using a Geneclamp 500 amplifier (Molecular Devices, Downingtown, PA, USA) controlled by a pClamp data acquisition system (Axon Instruments, Union City, CA, USA). Whole cell currents from oocytes were recorded 1–4 days after injection. The bath solution’s composition was 96-mM NaCl, 2-mM KCl, 1.8-mM CaCl2, 2-mM MgCl2, and 5-mM HEPES (pH 7.4). Toxins were applied directly to the bath. Resistances of both electrodes were kept between 0.8 and 1.5 MΩ. The elicited currents were sampled at 20 kHz (Nav) or 2 kHz (Kv), filtered at 2 kHz (Nav) or 0.5 kHz (Kv) using a four-pole low-pass Bessel filter. Leak subtraction was performed using a -P/4 protocol. […] For the electrophysiological analysis, a number of protocols were applied from a holding potential of −90 mV with a start-to-start interval of 0.2 Hz. Kv1.1–Kv1.6 and Shaker currents were evoked by 250-ms depolarizations to 0 mV followed by a 250 ms pulse to −50 mV from a holding potential of −90 mV. […] All data were analyzed using pClamp Clampfit 10.0 (Molecular Devices, Downingtown, PA, USA) and Origin 7.5 software (Originlab, Northampton, MA, USA).

[5] = target: human salivary α-amylase (HSA) (Homo sapiens, UniProt P0DUB6); test: Determination of Ki against human saliva α-amylase (Morrison); assay type: biochemical; conditions: pH 7, Table 5 summary, own value; 37 °C, pH 7.0, CNPG3, Morrison fit; read-out: Ki, M (HSA) (converted)
Sequence of human salivary α-amylase (HSA) (P0DUB6 16-511): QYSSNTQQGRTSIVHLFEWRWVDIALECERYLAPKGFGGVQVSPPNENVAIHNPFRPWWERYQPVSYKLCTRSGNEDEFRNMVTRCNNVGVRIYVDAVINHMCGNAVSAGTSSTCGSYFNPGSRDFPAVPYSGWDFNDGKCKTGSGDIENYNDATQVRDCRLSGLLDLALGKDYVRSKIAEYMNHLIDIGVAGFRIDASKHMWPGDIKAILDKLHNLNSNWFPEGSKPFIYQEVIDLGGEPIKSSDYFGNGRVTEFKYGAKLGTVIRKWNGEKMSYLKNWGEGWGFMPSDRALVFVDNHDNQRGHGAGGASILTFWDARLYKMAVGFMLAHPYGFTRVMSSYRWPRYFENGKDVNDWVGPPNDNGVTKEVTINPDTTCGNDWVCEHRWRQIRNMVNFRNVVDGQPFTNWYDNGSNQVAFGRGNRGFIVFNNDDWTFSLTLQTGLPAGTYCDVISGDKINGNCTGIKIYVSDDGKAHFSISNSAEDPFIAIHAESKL
Experimental: For a quantitative assessment of tight-binding inhibitor potency, Morrison’s method was applied. This method uses the Morrison quadratic equation (Equation (1)) for fitting inhibitor-response data and determining Ki app as a nonlinear regression parameter. (1) υ/υo=1−([E]+[I]+Kiapp)−([E]+[I]+Kiapp)^2−4[E][I]/2[E]o
Kinetic assays were carried out at 37 °C in 50 mM sodium phosphate and 100 mM sodium chloride (pH 7.0). 2-Chloro-4-nitrophenyl-α-maltotrioside (CNPG3) (Sigma Aldrich, St. Louis, MO, USA) was used as the substrate and the optical absorption of the 2-chloro-4-nitrophenol was measured at 405 nm. Reactions were run with final [CNPG3] = 1 mM ([S]/KM = 1.41, KM = 0.71 mM), nominal [E] = 20 nM for PPA, [CNPG3] = 3.3 mM ([S]/KM = 0.97, KM = 3.4 mM), and nominal [E] = 100 nM for HSA to provide sufficient analytical signal. Inhibitor dilution schemes were optimized considering recommendations in [34].
The enzyme was pre-incubated with the inhibitor for 10 minutes before the addition of substrate which launched the reaction. Reactions were monitored on an xMark microplate spectrophotometer (BioRad, USA) in the kinetic mode for 30 min. The initial linear steady state region provided initial rate values for each inhibitor concentration (υ), along with uninhibited rate values (υo). Measurements were run in triplicate. […]

[6] = tested on: fungi, Gram-positive or Gram-negative bacteria; test: Antimicrobial screening, overall; assay type: cell-based; conditions: 1, 5, 10, 20 µM; listed as magnificamide
Experimental: The antimicrobial activity of r-magnificamide was tested against Gram-positive (Staphylococcus aureus ATCC 21027 and Bacillus subtilis ATCC6633), Gram-negative bacteria (Escherichia coli VKPM B-7935 and Pseudomonas aeruginosa ATCC 27853), and the fungus Candida albicans KMM 455 by the agar dilution method. Microbial strains were taken from the American Type Culture Collection (ATCC), Russian National Collection of Industrial Microorganisms (VKPM), and Collection of Marine Microorganisms (KMM) (Pacific Institute of Bioorganic Chemistry FEB RAS). To obtain a microbial lawn, 0.1 mL of a cell suspension (0.5 × 10^8 cells/mL) was uniformly distributed on agar surface in Petri dishes (15 g/L tryptic soy broth, 2 g/L bacto yeast extract, 1 g/L glucose, and 20 g/L agar for bacteria; for fungi 10 g/L of glucose was added). Wells with a diameter of 6 mm were punched into the agar and filled with 100 µL of the peptide solution at concentrations 1, 5, 10, and 20 µM. The plates were then incubated for 18 h at 37 °C for bacteria, and at 30 °C for the fungus. Minimum inhibitory concentration was determined by measuring the clear zone of inhibition around each well. All assays were performed independently three times.

[7] = target: porcine pancreatic α-amylase (porcine) (UniProt P00690); test: enzyme inhibition kinetics (Morrison tight-binding fit); 37 °C, 50 mM sodium phosphate, 100 mM sodium chloride, pH 7.0; substrate CNPG3 (1 mM with nominal 20 nM PPA; 3.3 mM with nominal 100 nM HSA); enzyme pre-incubated with inhibitor 10 min; Ki from Ki app assuming a competitive mode of inhibition; triplicate
[8] = due to β-sandwich fold; ref [17]; cited from earlier work
Description: The medicines based on proteins and peptides are poorly represented in the pharmacological market, but attract the interest of specialists due to their high selectivity and effectiveness, combined with relative safety and good tolerability. A large number of proteinaceous α-amylase inhibitors have been isolated from plants, but they are highly specific and interacted with plant α-amylases to control the breakdown of stored starch or with insect α-amylases for defense. Several very effective proteinaceous inhibitors of mammalian, but not plant or microbial α-amylases were found in bacter ...

## C[C@H]1O[C@H](O[C@H]2[C@H](O)[C@@H](O)[C@@H](O[C@H]3[C@H](O)[C@@H](O)C(O)O[C@@H]3CO)O[C@@H]2CO)[C@H](O)[C@@H](O)[C@@H]1N[C@H]1C=C(CO)[C@@H](O)[C@H](O)[C@H]1O (some centres unmarked) [Acarbose]
[1]; Table 5, ref [9], read-out: Ki, M (HSA) (converted)
  Ki: 1300 nM
[1]; ref [9], read-out: Ki against HSA
  Ki: 1260 nM

## Helianthamide: α-amylase inhibitor of the β-defensins family from Stichodactyla helianthus (44 aa, 4716 Da); PDB ID 4XON (ESGNSCYIYHGVSGICKASCAEDEKAMAGMGVCEGHLCCYKTPW; three disulfide bridges; the text prints the PDB ID as 4XON, read as 4X0N (complex with porcine pancreatic alpha-amylase)) [reference compound]
[2]; Table 5, ref [18]
  Ki: 0.1 nM

## Montbretin A
[3]
  Ki: 8.1 nM

## SEGTSCYIYHGVYGICKAKCAEDMKAMAGMGVCEGDLCCYKTPW (disulfide 6-38, 16-33, 20-39) [Magnificamide]
[4]
  Ion channel modulating activity, overall: found no activity
[5]
  Ki: 7.7 nM
[6]
  Antimicrobial activity, overall: No antimicrobial activity against Gram-positive, Gram-negative bacteria, or fungi was observed

## recombinant magnificamide (peptide)
[7]
  Ki: 0.17 nM

B1: Tendamistat (HOE-467A): α-amylase inhibitor from Streptomyces tendae 4158, Mr 7958 Da (protein, UniProt P01092 31-104, looked up)
Alpha-amylase inhibitor …: DTTVSEPAPSCVTLYQSWRYSQADNGCAQTVTVKVVYEDDTEGLCYAVAPGQITTVGDGYIGSHGHARYLARCL
[2]; Table 5, ref [13]
  Ki: 0.009 nM
[8]
  immunogenicity: high immunogenicity

B2: Parvulustat (Z-2685): α-amylase inhibitor from Streptomyces parvullus FH-1641, Mr 8129 Da (protein)
chain: ATGSPVAECVEYFQSWRYTDVHNGCADAVSVTVEYTHGQWAPCRVIEPGGWATFAGYGTDGNYVTGLHTCDPATPSGV
modifications: two disulfide bridges; expected 78 aa, 8129 Da
[2]; Table 5, ref [16]
  Ki: 0.028 nM
